# Assay results as given in article PMC12332667, “Role of Structural Modifications in Peptidomimetic Compounds as Potential Antimicrobial Agents against Staphylococcus aureus and Streptococcus pyogenes: Balancing Bioavailability, Safety, and Antimicrobial Activity” (ACS Omega, 2025).
# Read-outs that look alike come from different tables or passages of the source.
# Legend:
# [1] = reference number not given, probably ref 84, 85; cited from earlier work
# P. aeruginosa ATCC 10145 = experiment: MIC/MBC broth microdilution, P. aeruginosa; type: cell-based
# Outline: (§1)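 Broth microdilution per NCCLS in BHI, ~10^5 CFU/mL inoculum, serially diluted peptidomimetics (stock 1024 μg/mL in water with 5–10% ethanol or DMSO), 18 h at 37 °C. MIC: lowest concentration with no obvious growth (≥90% of untreated); MBC: ≤3 colonies, ≥99.9% kill.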
# S. aureus ATCC 43300 = experiment: MIC/MBC broth microdilution, S. aureus; type: cell-based, Staphylococcus aureus; conditions: S. aureus
# S. intemrdius c.i. = experiment: MIC/MBC broth microdilution, S. intermedius; type: cell-based, Staphylococcus intermedius; conditions: Staphylococcus intermedius
# Outline: as §1
# [2] = test system: primary human keratinocytes; design: method as in PMID 28110818; conditions: concentrations up to 50 μg/mL; reference number not given, probably ref 22; cited from earlier work
# [3] = test system: K. pneumoniae ATCC 700603; experiment: MIC/MBC broth microdilution, K. pneumoniae; type: cell-based
# Outline: as §1
# E. faecalis c.i. = experiment: MIC/MBC broth microdilution, E. faecalis; type: cell-based, Enterococcus faecalis
# Outline: as §1
# P. vulgaris ATCC 6896 = experiment: MIC/MBC broth microdilution, P. vulgaris; type: cell-based, Proteus vulgaris
# Outline: as §1
# S. cohnii c.i. = experiment: MIC/MBC broth microdilution, S. cohnii; type: cell-based, Staphylococcus cohnii; conditions: Staphylococcus cohnii; for MIC: read-out: MIC
# Outline: as §1
# S. schleiferi c.i. = experiment: MIC/MBC broth microdilution, S. schleiferi; type: cell-based, Staphylococcus schleiferi; conditions: Staphylococcus schleiferi; for MBC: read-out: MBC; for MIC: read-out: MIC
# Outline: as §1
# E. coli ATCC 25922 = experiment: MIC/MBC broth microdilution, E. coli; type: cell-based, Escherichia coli
# Outline: as §1
# S. mutans c.i. = experiment: MIC/MBC broth microdilution, S. mutans; type: cell-based, Streptococcus mutans
# Outline: as §1
# S. pyogenes ATCC 19615 = experiment: MIC/MBC broth microdilution, S. pyogenes; type: cell-based, Streptococcus pyogenes; conditions: for MBC: read-out: MBC
# Outline: as §1
# S. agalactiae ATCC 27956 = experiment: MIC/MBC broth microdilution, S. agalactiae; type: cell-based, Streptococcus agalactiae; conditions: Streptococcus agalactiae, ATCC27956, S. agalactiae; for MBC: read-out: MBC; for MIC: read-out: MIC
# Outline: as §1
smiles,measurement,setting,value
CN[C@H](CC(C)C)C(=O)N[C@H]1C(=O)N[C@@H](CC(N)=O)C(=O)N[C@H]2C(=O)N[C@H]3C(=O)N[C@H](C(=O)N[C@H](C(=O)O)c4cc(O)cc(O)c4-c4cc3ccc4O)[C@H](O)c3ccc(c(Cl)c3)Oc3cc2cc(c3O[C@@H]2O[C@H](CO)[C@@H](O)[C@H](O)[C@H]2O[C@H]2C[C@](C)(N)[C@H](O)[C@H](C)O2)Oc2ccc(cc2Cl)[C@H]1O [vancomycin],VD values,[1],−0.398 to 0 log L/kg
CC(C)C[C@H](NC(=O)[C@H](CCCNC(=N)N)NC(=O)OCc1ccccc1)C(=O)N[C@H](CNC(=O)/C=C/c1ccccc1)C(C)C [Compound A-20],MIC,"P. aeruginosa ATCC 10145; Pseudomonas aeruginosa, ATCC10145, H2O, read-out: MIC",> 512 µg/mL
same,MIC,P. aeruginosa ATCC 10145; water additive DMSO,> 512 µg/mL
same,MIC,P. aeruginosa ATCC 10145; water additive EtOH,> 512 µg/mL
same,MBC,S. aureus ATCC 43300; water additive DMSO,32 µg/mL
same,MIC,S. aureus ATCC 43300; water additive DMSO,16 µg/mL
same,MBC,S. aureus ATCC 43300; water additive EtOH,32 µg/mL
same,MIC,S. aureus ATCC 43300; water additive EtOH,16 µg/mL
same,MBC,"S. aureus ATCC 43300; Staphylococcus aureus, ATCC43300, H2O, read-out: MBC",32 µg/mL
same,MIC,"S. aureus ATCC 43300; Staphylococcus aureus, ATCC43300, H2O, read-out: MIC",16 µg/mL
same,MBC,S. intemrdius c.i.; H2O,64 µg/mL
same,MIC,S. intemrdius c.i.; H2O,32 µg/mL
same,MBC,S. intemrdius c.i.; water additive DMSO,32 µg/mL
same,MIC,S. intemrdius c.i.; water additive DMSO,16 µg/mL
same,MBC,S. intemrdius c.i.; water additive EtOH,64 µg/mL
same,MIC,S. intemrdius c.i.; water additive EtOH,32 µg/mL
same,impact on proliferation,[2],no impact on the proliferation
same,MIC,"[3]; Klebsiella pneumoniae, ATCC700603, H2O, read-out: MIC",> 512 µg/mL
same,MIC,[3]; water additive DMSO,> 512 µg/mL
same,MIC,[3]; water additive EtOH,> 512 µg/mL
same,MBC,"E. faecalis c.i.; Enterococcus faecalis, H2O, read-out: MBC",256 µg/mL
same,MIC,"E. faecalis c.i.; Enterococcus faecalis, H2O, read-out: MIC",128 µg/mL
same,MBC,E. faecalis c.i.; water additive DMSO,256 µg/mL
same,MBC,E. faecalis c.i.; water additive EtOH,256 µg/mL
same,MIC,"P. vulgaris ATCC 6896; Proteus vulgaris, ATCC6896, H2O, read-out: MIC",> 512 µg/mL
same,MIC,P. vulgaris ATCC 6896; water additive DMSO,> 512 µg/mL
same,MIC,P. vulgaris ATCC 6896; water additive EtOH,> 512 µg/mL
same,MBC,"S. cohnii c.i.; H2O, read-out: MBC",64 µg/mL
same,MIC,S. cohnii c.i.; H2O,128 µg/mL
same,MIC,S. cohnii c.i.; water additive DMSO,64 µg/mL
same,MIC,S. cohnii c.i.; water additive EtOH,64 µg/mL
same,MBC,S. schleiferi c.i.; H2O,16 µg/mL
same,MIC,S. schleiferi c.i.; H2O,16 µg/mL
same,MBC,S. schleiferi c.i.; water additive DMSO,8 µg/mL
same,MIC,S. schleiferi c.i.; water additive DMSO,8 µg/mL
same,MBC,S. schleiferi c.i.; water additive EtOH,16 µg/mL
same,MIC,S. schleiferi c.i.; water additive EtOH,16 µg/mL
same,MBC,"E. coli ATCC 25922; Escherichia coli, ATCC25922, H2O, read-out: MBC",512 µg/mL
same,MIC,"E. coli ATCC 25922; Escherichia coli, ATCC25922, H2O, read-out: MIC",256 µg/mL
same,MBC,E. coli ATCC 25922; water additive DMSO,512 µg/mL
same,MIC,E. coli ATCC 25922; water additive DMSO,256 µg/mL
same,MBC,E. coli ATCC 25922; water additive EtOH,512 µg/mL
same,MIC,E. coli ATCC 25922; water additive EtOH,256 µg/mL
same,MIC,"S. mutans c.i.; Streptococcus mutans, H2O, read-out: MIC",16 µg/mL
same,MIC,S. mutans c.i.; water additive DMSO,16 µg/mL
same,MIC,S. mutans c.i.; water additive EtOH,16 µg/mL
same,MIC,"S. pyogenes ATCC 19615; S. pyogenes, H2O",8 µg/mL
same,MIC,"S. pyogenes ATCC 19615; S. pyogenes, water additive EtOH",8 µg/mL
same,MBC,"S. pyogenes ATCC 19615; Streptococcus pyogenes, ATCC19615, S. pyogenes, H2O",16 µg/mL
same,MBC,"S. pyogenes ATCC 19615; Streptococcus pyogenes, ATCC19615, S. pyogenes, water additive EtOH",16 µg/mL
same,MBC,"S. pyogenes ATCC 19615; Streptococcus pyogenes, ATCC19615, S. pyogenes, water additive DMSO",8 µg/mL
same,MIC,"S. pyogenes ATCC 19615; Streptococcus pyogenes, ATCC19615, S. pyogenes, water additive DMSO, read-out: MIC",8 µg/mL
same,MBC,S. agalactiae ATCC 27956; H2O,256 µg/mL
same,MIC,S. agalactiae ATCC 27956; H2O,128 µg/mL
same,MBC,S. agalactiae ATCC 27956; water additive DMSO,64 µg/mL
same,MIC,S. agalactiae ATCC 27956; water additive DMSO,32 µg/mL
same,MBC,S. agalactiae ATCC 27956; water additive EtOH,128 µg/mL
same,MIC,S. agalactiae ATCC 27956; water additive EtOH,64 µg/mL
